Laboratory results as given in paper PMC2901914 (Neuron, 2010).

Biological target: T1, mouse I7 receptor (mI7) (Mus musculus, UniProt Q9QWU6)
T1 sequence (Q9QWU6 1-327): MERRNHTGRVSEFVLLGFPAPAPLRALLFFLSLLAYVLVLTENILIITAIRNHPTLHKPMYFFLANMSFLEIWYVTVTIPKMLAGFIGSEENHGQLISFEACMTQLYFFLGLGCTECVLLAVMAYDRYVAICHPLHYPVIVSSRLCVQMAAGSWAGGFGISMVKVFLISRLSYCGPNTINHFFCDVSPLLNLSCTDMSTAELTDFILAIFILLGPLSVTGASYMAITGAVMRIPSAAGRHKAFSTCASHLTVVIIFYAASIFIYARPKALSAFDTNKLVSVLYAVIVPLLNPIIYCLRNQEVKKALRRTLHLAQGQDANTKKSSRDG

Structure (SMILES)	EC50 [µM]
CCCCCCC=O [7al, heptanal]	~6.3
CCCCCCCC=O [8al, octanal]	~63.1
